Like-named read-outs stand apart in the source and are kept apart here. Square brackets hold non-standard residues; d marks the D form. Peptide text beside a SMILES is read from it. ξ: configuration not given here. ξLac(3-iPr) = CC(C)CC(O)C(=O)O; NMeL = CN[C@@H](CC(C)C)C(=O)O
Columns and labels:
[1] = test system: A549 non-small-cell lung cancer cell line; experiment: In vitro cytotoxicity, SRB method; assay type: cell-based, Human
Description: (§1) Known cyclic hexadepsipeptides (beauvericin, enniatin H, I, and MK1688) and the compounds of Chemical Formulas 1 and 2 were evaluated for in vitro cytotoxicity against various non-multidrug-resistant human cancer cell lines and multidrug-resistant cancer cell lines using the SRB method.
(§2) Human non-small-cell lung cancer cell line (A549) ovarian cancer cell line (SK-OV-3), skin cancer cell line (SK-MEL-2), and uterine sarcoma cell line MES-SA and its multi-drug resistant subline (MES-SA/DX5) were purchased from the American Type Culture Collection (USA). Colorectal carcinoma cancer cell line (HCT-15) was provided by the National Cancer Institute (NCI). HCT15/CL02 cell lines were established from HCT15 cells by continuous and stepwise exposure of the cells to doxorubicin in the Korea Research Institute of Chemical Technology (Korea).

[2] = test system: HCT15 colorectal carcinoma cancer cell line; experiment: In vitro cytotoxicity, SRB method; assay type: cell-based, Human
Description: as §1, §2

[3] = test system: HCT15/CL02 cell line (doxorubicin-selected from HCT15); experiment: In vitro cytotoxicity, SRB method; assay type: cell-based, Human
Description: as §1, §2

[4] = test system: MES-SA uterine sarcoma cell line; experiment: In vitro cytotoxicity, SRB method; assay type: cell-based, Human; settings: read-out: EC50 (concentration inhibiting cell growth in vitro by 50%)
Description: as §1, §2

[5] = test system: MES-SA/DX5 multi-drug resistant subline; experiment: In vitro cytotoxicity, SRB method; assay type: cell-based, Human
Description: as §1, §2

[6] = test system: SK-MEL-2 skin cancer cell line; experiment: In vitro cytotoxicity, SRB method; assay type: cell-based, Human
Description: as §1, §2

[7] = test system: SK-OV-3 ovarian cancer cell line; experiment: In vitro cytotoxicity, SRB method; assay type: cell-based, Human
Description: as §1, §2

[8] = test system: MDR cell lines (MES-SA/DX5 and HCT15/CL02); experiment: Multidrug resistance-reversing activity, summary in words; assay type: cell-based, Human
Description: The cyclic pentadepsipeptides of Chemical Formulas 1 and 2 were analyzed for MDR-reversing activity by comparing inhibitory activities against multidrug-resistant cancer cell lines (MES-SA/DX5 and HCT15/CL02) with those against non-multidrug-resistant cancer cell lines (MES-SA and HCT15). In this regard, the effects of the cyclic pentadepsipeptides of Chemical Formulas 1 and 2 on paclitaxel's cytotoxicity against MDR tumor cells were measured (Table 6). […].
Therefore, the N-methyl group in the cyclic pentadepsipeptide may be a factor crucial for the expression of the MDR reversal activity. […]

[9] = test system: Bacillus cereus ATCC 13061; experiment: Anti-bacterial activity, paper disc clear zone; assay type: cell-based; settings: 0.1, 0.5, 1 and 2 mM on paper disc; 37° C., 24 hr
Description: (§3) Assays for antibacterial activity were performed with 3 Gram-positive (Listeria monocytogenes ATCC 14028, Staphylococcus aureus ATCC 35556 and Bacillus cereus ATCC 13061) and 3 Gram-negative bacteria (Escherichia coli ATCC 8739, Pseudomonas aeruginosa ATCC 9026 and Salmonella typhimurium ATCC 14028). Each of the compounds of Chemical Formulas 1 and 2 was dissolved in different concentrations (0.1, 0.5, 1, and 2 mM) in dimethyl sulfoxide (DMSO). The solutions were applied to a sterile paper disc (5 mm diameter), followed by evaporating the DMSO solvent. Bacteria was inoculated at a density of 1×10^7 CFU/ml on Tryptic soy agar (TSA) and then, the paper disc was placed on the bacteria-inoculated agars. After incubation at 37° C. for 24 hr, the clear zone around each disc was observed and its diameter was measured.

[10] = test system: Escherichia coli ATCC 8739; experiment: Anti-bacterial activity, paper disc clear zone; assay type: cell-based; settings: 0.1, 0.5, 1 and 2 mM on paper disc; 37° C., 24 hr
Description: as §3

[11] = test system: Listeria monocytogenes ATCC 14028; experiment: Anti-bacterial activity, paper disc clear zone; assay type: cell-based; settings: 0.1, 0.5, 1 and 2 mM on paper disc; 37° C., 24 hr
Description: as §3

[12] = test system: Pseudomonas aeruginosa ATCC 9026; experiment: Anti-bacterial activity, paper disc clear zone; assay type: cell-based; settings: 0.1, 0.5, 1 and 2 mM on paper disc; 37° C., 24 hr
Description: as §3

[13] = test system: Salmonella typhimurium ATCC 14028; experiment: Anti-bacterial activity, paper disc clear zone; assay type: cell-based; settings: 0.1, 0.5, 1 and 2 mM on paper disc; 37° C., 24 hr
Description: as §3

[14] = test system: Staphylococcus aureus ATCC 35556; experiment: Anti-bacterial activity, paper disc clear zone; assay type: cell-based; settings: 0.1, 0.5, 1 and 2 mM on paper disc; 37° C., 24 hr
Description: as §3

Aspergillus oryzae = experiment: Anti-fungal activity, paper disc on mycelia on PDA; assay type: cell-based; settings: 1 mM; 25° C., 48 hr
Description: (§4) Inhibitory activity was performed against four fungus strains (Mucor rouxii, Penicillium citrinum, Fusarium oxysporum, and Aspergillus oryzae).
(§5) Drops of 1 and 10 mM solutions of compounds of Chemical Formulas 1 and 2 in methanol were loaded onto sterile paper discs (8 mm diameter) and the methanol solvent was evaporated under a hood. The paper discs were placed on fungus mycelia grown on potato dextrose agar. After incubation at 25° C. for 48 hr, clear zones around the discs were observed and their diameters were measured. A filter treated with pure methanol was used as a negative control.

Fusarium oxysporum = experiment: Anti-fungal activity, paper disc on mycelia on PDA; assay type: cell-based; settings: for Inhibitory activity on mycelial growth: 1 mM; for Inhibitory activity on mycelial growth / Clear zone / inhibitory effect on mycelium: 25° C., 48 hr; for Clear zone / inhibitory effect on mycelium: 10 mM
Description: as §4, §5

Mucor rouxii = experiment: Anti-fungal activity, paper disc on mycelia on PDA; assay type: cell-based; settings: for Inhibitory activity on mycelial growth: 1 mM; for Inhibitory activity on mycelial growth / Clear zone / Hyphal growth near the paper disc: 25° C., 48 hr; for Clear zone / Hyphal growth near the paper disc: 10 mM
Description: as §4, §5

Penicillium citrinum = experiment: Anti-fungal activity, paper disc on mycelia on PDA; assay type: cell-based; settings: 1 mM; 25° C., 48 hr
Description: as §4, §5

[15] = Homo sapiens, A549, read-out: EC50 (concentration inhibiting cell growth in vitro by 50%)
[16] = Homo sapiens, HCT-15, read-out: EC50 (concentration inhibiting cell growth in vitro by 50%)
[17] = Homo sapiens, MES-SA/Dx5, read-out: EC50 (concentration inhibiting cell growth in vitro by 50%)
[18] = Homo sapiens, SK-MEL-2, read-out: EC50 (concentration inhibiting cell growth in vitro by 50%)
[19] = Homo sapiens, SK-OV-3, read-out: EC50 (concentration inhibiting cell growth in vitro by 50%)

SMILES	EC50 [1, 15]	EC50 [2, 16]	EC50 [3, 16]	EC50 ([4]; Homo sapiens)	EC50 [5, 17]	EC50 [6, 18]	EC50 [7, 19]	Effect on the cytotoxicity of paclitaxel against MDR cell lines [8]	Inhibitory activity (clear zone around disc) [9]	Inhibitory activity (clear zone around disc) [10]	Inhibitory activity (clear zone around disc) [11]	Inhibitory activity (clear zone around disc) [12]	Inhibitory activity (clear zone around disc) [13]	Inhibitory activity (clear zone around disc) [14]	Inhibitory activity on mycelial growth (Aspergillus oryzae)	Antifungal test, overall result (Fusarium oxysporum)	Inhibitory activity on mycelial growth (Fusarium oxysporum)	Clear zone / inhibitory effect on mycelium (Fusarium oxysporum)	Antifungal test, overall result (Mucor rouxii)	Inhibitory activity on mycelial growth (Mucor rouxii)	other results
CC(C)CC1OC(=O)[C@H](CC(C)C)NC(=O)[C@H](Cc2ccccc2)NC(=O)[C@H](C(C)C)NC(=O)[C@H](CC(C)C)NC1=O (stereo partly drawn) [Com. 1, neo-sansalvamide] (cyclo(FL[ξLac(3-iPr)]LV))	11.7 ± 0.55 µM	9.95 ± 1 µM	22.1 ± 2.45 µM	11.8 ± 0.13 µM	19.4 ± 1.1 µM	14 ± 1.32 µM	10.4 ± 0.64 µM	increased the cytotoxicity of paclitaxel against MDR cell lines, but only slightly	Neither the compound of Chemical Formula 1 nor Chemical Formula 2 showed inhibitory activity	Neither the compound of Chemical Formula 1 nor Chemical Formula 2 showed inhibitory activity	Neither the compound of Chemical Formula 1 nor Chemical Formula 2 showed inhibitory activity	Neither the compound of Chemical Formula 1 nor Chemical Formula 2 showed inhibitory activity	Neither the compound of Chemical Formula 1 nor Chemical Formula 2 showed inhibitory activity	Neither the compound of Chemical Formula 1 nor Chemical Formula 2 showed inhibitory activity	No inhibitory activities were detected	inhibitory against Mucor rouxii, and Fusarium oxysporum, weakly	No inhibitory activities were detected	did not produce a clear zone	inhibitory against Mucor rouxii, and Fusarium oxysporum, weakly	No inhibitory activities were detected	Clear zone (Mucor rouxii): no clear zones were observed; Hyphal growth near the paper disc (Mucor rouxii): hyphal growth of Mucor rouxii was reduced; Inhibitory activity on mycelial growth (Penicillium citrinum): No inhibitory activities were detected
CC(C)CC1OC(=O)[C@H](Cc2ccccc2)NC(=O)[C@H](CC(C)C)NC(=O)[C@H](C(C)C)NC(=O)[C@H](CC(C)C)N(C)C1=O (stereo partly drawn) [Com. 2, neo-Nmethylsansalvamide] (cyclo(F[ξLac(3-iPr)][NMeL]VL))	10.7 ± 0.15 µM	12.5 ± 0.71 µM	13.5 ± 1.19 µM	14 ± 0.74 µM	11.4 ± 0.3 µM	10 ± 0.53 µM	11.2 ± 1.23 µM	remarkably enhanced the cytotoxicity of paclitaxel	Neither the compound of Chemical Formula 1 nor Chemical Formula 2 showed inhibitory activity	Neither the compound of Chemical Formula 1 nor Chemical Formula 2 showed inhibitory activity	Neither the compound of Chemical Formula 1 nor Chemical Formula 2 showed inhibitory activity	Neither the compound of Chemical Formula 1 nor Chemical Formula 2 showed inhibitory activity	Neither the compound of Chemical Formula 1 nor Chemical Formula 2 showed inhibitory activity	Neither the compound of Chemical Formula 1 nor Chemical Formula 2 showed inhibitory activity	No inhibitory activities were detected	inhibitory against Mucor rouxii, and Fusarium oxysporum, weakly	No inhibitory activities were detected	exhibited an inhibitory effect at 10 mM, weakly	inhibitory against Mucor rouxii, and Fusarium oxysporum, weakly	No inhibitory activities were detected	Clear zone (Mucor rouxii): no clear zones were observed; Hyphal growth near the paper disc (Mucor rouxii): hyphal growth of Mucor rouxii was reduced; Inhibitory activity on mycelial growth (Penicillium citrinum): No inhibitory activities were detected
COc1cccc2c1C(=O)c1c(O)c3c(c(O)c1C2=O)C[C@@](O)(C(=O)CO)C[C@@H]3O[C@H]1C[C@H](N)[C@H](O)[C@H](C)O1 [Doxorubicin, doxorubicin]	0.03 ± 0.01 µM	–	–	0.01 ± 0.0001 µM	1.03 ± 0.31 µM	0.04 ± 0.01 µM	0.06 ± 0.01 µM	–	–	–	–	–	–	–	–	–	–	–	–	–	EC50 ([2]; Homo sapiens, HCT-15, read-out: EC50 (concentration inhibiting cell growth in vitro by 50%), HCT15): 0.01 ± 0.001 µM; EC50 ([3]; Homo sapiens, HCT-15, read-out: EC50 (concentration inhibiting cell growth in vitro by 50%), HCT15/CL02): 4.48 ± 2.15 µM
CC[C@H](C)[C@H]1OC(=O)[C@H](C(C)C)N(C)C(=O)[C@@H](C(C)C)OC(=O)[C@H](C(C)C)N(C)C(=O)[C@@H](C(C)C)OC(=O)[C@H](C(C)C)N(C)C1=O [EN H, enniatin H]	–	–	–	–	–	–	–	–	–	–	–	–	–	–	–	–	–	–	–	–	EC50 ([1]; read-out: EC50 (concentration inhibiting cell growth in vitro by 50%), A549): 1.84 ± 0.11 µM; EC50 ([2]; read-out: EC50 (concentration inhibiting cell growth in vitro by 50%), HCT15): 16.7 ± 0.96 µM; EC50 ([3]; read-out: EC50 (concentration inhibiting cell growth in vitro by 50%), HCT15/CL02): 17.7 ± 0.49 µM; EC50 [4]: 12.9 ± 0.23 µM; EC50 ([5]; read-out: EC50 (concentration inhibiting cell growth in vitro by 50%), MES-SA/DX5): 14.9 ± 0.59 µM; EC50 ([6]; read-out: EC50 (concentration inhibiting cell growth in vitro by 50%), SK-MEL-2): 1.77 ± 0.03 µM; EC50 ([7]; read-out: EC50 (concentration inhibiting cell growth in vitro by 50%), SK-OV-3): 1.71 ± 0.03 µM

— patent US9260485B2 (priority 2009, dated 2016)
